In ChEMBL document CHEMBL1949526, “Cyclic hydroxyamidines as amide isosteres: discovery of oxadiazolines and oxadiazines as potent and highly efficacious γ-secretase modulators in vivo” (J Med Chem, 2012):

Tests used:
Rattus norvegicus [1] = test: Antialzheimer activity in CD rat assessed as reduction in amyloid beta40 level in cortex at 3 mg/kg, po after 3 hrs by alphaLISA analysis; format: functional; set-up: scale not given: the % may be the effect or the level left
Cynomolgus monkey [2] = test: Antialzheimer activity in cynomolgus monkey assessed as reduction in amyloid beta42 level in CSF at 30 mg/kg, po after 4 hrs by alphaLISA analysis; format: functional, Macaca fascicularis; set-up: scale not given: the % may be the effect or the level left
[3] = Ratio of drug level in brain to plasma in cynomolgus monkey at 30 mg/kg, po after 4 hrs; format: ADME, organism-based, Macaca fascicularis; set-up: dose 30 mg/kg, route oral; conditions: read-out: BPR
[4] = Cmax in dog at 10 mg/kg, po; format: ADME, organism-based, Canis lupus familiaris; set-up: dose 10 mg/kg, route oral; conditions: in vivo
[5] = Plasma concentration in CD rat at 3 mg/kg, po after 3 hrs; format: ADME, organism-based; set-up: dose 3 mg/kg, route oral
Rattus norvegicus [6] = test: Antialzheimer activity in CD rat assessed as reduction in amyloid beta42 level in cortex at 3 mg/kg, po after 3 hrs by alphaLISA analysis; format: functional; set-up: scale not given: the % may be the effect or the level left
[7] = Half life in monkey at 3 mg/kg, iv; format: ADME, organism-based, Macaca mulatta; set-up: dose 3 mg/kg, route intravenous; conditions: rhesus monkey, in vivo
[8] = Plasma concentration in cynomolgus monkey at 30 mg/kg, po after 4 hrs; format: ADME, organism-based, Macaca fascicularis; set-up: dose 30 mg/kg, route oral
[9] = AUC in rat at 10 mg/kg, po; format: ADME, organism-based, Plasma; set-up: dose 10 mg/kg, route oral; conditions: plasma
Rattus norvegicus [10] = test: Antialzheimer activity in CD rat assessed as reduction in amyloid beta42 level in plasma at 3 mg/kg, po after 3 hrs by alphaLISA analysis; format: functional; set-up: scale not given: the % may be the effect or the level left
Rattus norvegicus [11] = species on record: Rattus norvegicus; test: Toxicity in rat assessed as effect on HES-1 expression in jejunum at highest tolerable dose; format: organism-based; conditions: in vivo
Rattus norvegicus [12] = species on record: Rattus norvegicus; test: Toxicity in rat assessed as effect on adipsin expression in jejunum at highest tolerable dose; format: organism-based; conditions: in vivo
Rattus norvegicus [13] = test: Antialzheimer activity in CD rat assessed as reduction in amyloid beta42 level in CSF at 3 mg/kg, po after 3 hrs by alphaLISA analysis; format: functional; set-up: scale not given: the % may be the effect or the level left
Rattus norvegicus [14] = test: Antialzheimer activity in CD rat assessed as reduction in amyloid beta40 level in plasma at 3 mg/kg, po after 3 hrs by alphaLISA analysis; format: functional; set-up: scale not given: the % may be the effect or the level left
[15] = AUC in monkey at 10 mg/kg, po; format: ADME, organism-based, Macaca mulatta; set-up: dose 10 mg/kg, route oral; conditions: rhesus monkey, plasma
[16] = Cmax in monkey at 10 mg/kg, po; format: ADME, organism-based, Macaca mulatta; set-up: dose 10 mg/kg, route oral; conditions: rhesus monkey, in vivo
Rattus norvegicus [17] = test: Antialzheimer activity in CD rat assessed as reduction in total amyloid beta level in plasma at 3 mg/kg, po after 3 hrs by alphaLISA analysis; format: functional; set-up: scale not given: the % may be the effect or the level left
[18] = target: Voltage-gated inwardly rectifying potassium channel KCNH2 (Homo sapiens, UniProt Q12809); test: Inhibition of human ERG by cell based voltage clamp assay
Sequence of Voltage-gated inwardly rectifying potassium channel KCNH2 (Q12809 whole entry): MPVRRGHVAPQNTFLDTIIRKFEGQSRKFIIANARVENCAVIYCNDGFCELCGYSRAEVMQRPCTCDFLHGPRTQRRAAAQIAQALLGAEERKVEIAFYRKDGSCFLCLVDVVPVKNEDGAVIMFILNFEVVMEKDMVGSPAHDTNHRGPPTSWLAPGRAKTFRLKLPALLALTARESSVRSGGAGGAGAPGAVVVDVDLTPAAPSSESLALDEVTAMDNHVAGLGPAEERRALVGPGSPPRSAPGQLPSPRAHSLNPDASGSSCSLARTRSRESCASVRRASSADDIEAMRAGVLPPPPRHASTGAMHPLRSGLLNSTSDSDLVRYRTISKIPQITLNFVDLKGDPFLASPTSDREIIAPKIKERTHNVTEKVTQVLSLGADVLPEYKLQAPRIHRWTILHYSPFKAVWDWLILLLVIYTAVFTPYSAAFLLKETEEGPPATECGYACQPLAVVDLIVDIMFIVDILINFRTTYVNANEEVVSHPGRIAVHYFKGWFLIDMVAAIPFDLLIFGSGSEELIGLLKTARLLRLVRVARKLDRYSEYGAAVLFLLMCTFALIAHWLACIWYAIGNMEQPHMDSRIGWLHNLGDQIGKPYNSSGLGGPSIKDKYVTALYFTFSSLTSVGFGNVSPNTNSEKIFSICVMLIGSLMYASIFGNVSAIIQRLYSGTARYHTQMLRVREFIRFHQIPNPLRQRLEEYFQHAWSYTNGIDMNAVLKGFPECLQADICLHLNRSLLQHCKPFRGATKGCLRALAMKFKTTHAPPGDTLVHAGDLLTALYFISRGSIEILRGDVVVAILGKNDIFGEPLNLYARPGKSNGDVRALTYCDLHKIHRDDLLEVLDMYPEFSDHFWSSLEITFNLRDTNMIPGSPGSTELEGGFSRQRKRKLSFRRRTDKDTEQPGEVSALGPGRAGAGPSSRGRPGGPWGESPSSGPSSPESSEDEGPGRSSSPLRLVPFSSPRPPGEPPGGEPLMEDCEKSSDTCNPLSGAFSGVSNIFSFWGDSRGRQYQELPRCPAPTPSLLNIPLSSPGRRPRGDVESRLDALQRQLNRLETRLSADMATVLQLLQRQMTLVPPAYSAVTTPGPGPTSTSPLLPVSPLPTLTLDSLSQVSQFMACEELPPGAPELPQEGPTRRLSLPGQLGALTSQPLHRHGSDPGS

Gamma-secretase [19] = test: Modulation of gamma-secretase-mediated cleavage of human APP Swedish and London mutation expressed in HEK293 cells assessed as reduction of total amyloid beta level after 5 hrs by sandwich immunoassay; format: cell-based
[20] = AUC in dog at 10 mg/kg, po; format: ADME, organism-based, Canis lupus familiaris, Plasma; set-up: dose 10 mg/kg, route oral; conditions: plasma
[21] = Dissociation constant, pKa of the compound; format: physicochemical
[22] = Permeability from apical to basolateral side of human Caco2 cells; format: ADME, cell-based; conditions: Caco-2, read-out: permeability
Gamma-secretase [23] = test: Modulation of gamma-secretase-mediated notch signaling in HEK293 cells transfected with human APP Swedish and London mutation and Notch1 with truncated extracellular EGF repeat domain assessed as production of notch intracellular domain by MSD-based sandwich immunoassay; format: cell-based
[24] = Ratio of drug level in brain to plasma in CD rat at 3 mg/kg, po after 3 hrs; format: ADME, organism-based; set-up: dose 3 mg/kg, route oral; conditions: read-out: BPR
Gamma-secretase [25] = test: Modulation of gamma-secretase-mediated cleavage of human APP Swedish and London mutation expressed in HEK293 cells assessed as inhibition of amyloid beta42 production after 5 hrs by sandwich immunoassay; format: cell-based
[26] = Half life in dog at 3 mg/kg, iv; format: ADME, organism-based, Canis lupus familiaris; set-up: dose 3 mg/kg, route intravenous; conditions: in vivo
Rattus norvegicus [27] = species on record: Rattus norvegicus; test: Toxicity in rat assessed as decrease in body weight at highest tolerable dose; format: organism-based; conditions: in vivo
Canis familiaris = species on record: Canis familiaris; test: Cardiotoxicity in dog assessed as effect on electrocardiographic QTc interval at compound concentration required for pharmacological effect; format: toxicity, organism-based, Canis lupus familiaris; conditions: in vivo
[28] = Oral bioavailability in rat at 10 mg/kg; format: ADME, organism-based; conditions: in vivo
[29] = Oral bioavailability in monkey at 10 mg/kg; format: ADME, organism-based, Macaca mulatta; conditions: rhesus monkey, in vivo
[30] = Volume of distribution at steady state in dog at 3 mg/kg, iv; format: ADME, organism-based, Canis lupus familiaris; set-up: dose 3 mg/kg, route intravenous; conditions: in vivo, read-out: Vdss
[31] = Clearance in rat at 3 mg/kg, iv; format: ADME, organism-based; set-up: dose 3 mg/kg, route intravenous; conditions: in vivo
Rattus norvegicus [32] = species on record: Rattus norvegicus; test: Toxicity in rat assessed as production of goblet cell meta/hyperplasia in ileum at highest tolerable dose; format: organism-based; conditions: in vivo
Gamma-secretase [33] = test: Modulation of gamma-secretase-mediated cleavage of human APP Swedish and London mutation expressed in HEK293 cells assessed as inhibition of amyloid beta40 production after 5 hrs by sandwich immunoassay; format: cell-based
Rattus norvegicus [34] = test: Antialzheimer activity in CD rat assessed as reduction in total amyloid beta level in CSF at 3 mg/kg, po after 3 hrs by alphaLISA analysis; format: functional; set-up: scale not given: the % may be the effect or the level left
[35] = Clearance in monkey at 3 mg/kg, iv; format: ADME, organism-based, Macaca mulatta; set-up: dose 3 mg/kg, route intravenous; conditions: rhesus monkey, in vivo
[36] = Cmax in rat at 10 mg/kg, po; format: ADME, organism-based; set-up: dose 10 mg/kg, route oral; conditions: in vivo
[37] = Clearance in dog at 3 mg/kg, iv; format: ADME, organism-based, Canis lupus familiaris; set-up: dose 3 mg/kg, route intravenous; conditions: in vivo
Cynomolgus monkey [38] = test: Antialzheimer activity in cynomolgus monkey assessed as reduction in amyloid beta42 level in cortex at 30 mg/kg, po after 4 hrs by alphaLISA analysis; format: functional, Macaca fascicularis; set-up: scale not given: the % may be the effect or the level left
Rattus norvegicus [39] = test: Antialzheimer activity in CD rat assessed as reduction in amyloid beta40 level in CSF at 3 mg/kg, po after 3 hrs by alphaLISA analysis; format: functional; set-up: scale not given: the % may be the effect or the level left
[40] = Volume of distribution at steady state in monkey at 3 mg/kg, iv; format: ADME, organism-based, Macaca mulatta; set-up: dose 3 mg/kg, route intravenous; conditions: rhesus monkey, in vivo, read-out: Vdss
[41] = Efflux ratio of permeability from basolateral to apical side over apical to basolateral side in human Caco2 cells; format: ADME, cell-based; conditions: Caco-2
[42] = Half life in rat at 3 mg/kg, iv; format: ADME, organism-based; set-up: dose 3 mg/kg, route intravenous; conditions: in vivo
[43] = Oral bioavailability in dog at 10 mg/kg; format: ADME, organism-based, Canis lupus familiaris; conditions: in vivo
[44] = Volume of distribution at steady state in rat at 3 mg/kg, iv; format: ADME, organism-based; set-up: dose 3 mg/kg, route intravenous; conditions: in vivo, read-out: Vdss
Rattus norvegicus [45] = species on record: Rattus norvegicus; test: Toxicity in rat assessed as decrease in thymus size at highest tolerable dose; format: organism-based; conditions: in vivo

SMILES: COc1cc(/C=C2\CCCN3C2=NOC[C@@H]3c2cc(F)c(F)c(F)c2)ccc1-n1cnc(C)c1
- Activity (Rattus norvegicus [1]): 84%
- Activity (Cynomolgus monkey [2]): 70%
- Kp at 4 h [3]: 1.4
- Cmax [4]: 7.9 µM
- concentration at 3 h [5]: 3 µM
- Activity (Rattus norvegicus [6]): 63%
- half-life [7]: 54 min
- concentration at 4 h [8]: 6 µM
- AUC [9]: 265 µM·h
- Activity (Rattus norvegicus [10]): 32%
- Activity (Rattus norvegicus [11]): Non-toxic
- Activity (Rattus norvegicus [12]): Non-toxic
- Activity (Rattus norvegicus [13]): 65%
- Activity (Rattus norvegicus [14]): 50%
- AUC [15]: 11 µM·h
- Cmax [16]: 4.9 µM
- Activity (Rattus norvegicus [17]): 86%
- IC50 [18]: 1000 nM
- IC50 (Gamma-secretase [19]): > 20000 nM
- AUC [20]: 27 µM·h
- pKa [21]: 2.7
- Papp A→B [22]: 24.6 ×10⁻⁶ cm/s
- IC50 (Gamma-secretase [23]): > 50000 nM
- Kp at 3 h [24]: 0.49
- IC50 (Gamma-secretase [25]): 33 nM
- half-life [26]: 48 min
- Activity (Rattus norvegicus [27]): Non-toxic
- Activity (Canis familiaris): Non-toxic
- bioavailability [28]: 100%
- bioavailability [29]: 34%
- Vd [30]: 0.6 L/kg
- clearance [31]: 1.4 mL/min/kg
- Activity (Rattus norvegicus [32]): Non-toxic
- IC50 (Gamma-secretase [33]): 123 nM
- Activity (Rattus norvegicus [34]): 88%
- clearance [35]: 11 mL/min/kg
- Cmax [36]: 19.8 µM
- clearance [37]: 9 mL/min/kg
- Activity (Cynomolgus monkey [38]): 44%
- Activity (Rattus norvegicus [39]): 74%
- Vd [40]: 0.8 L/kg
- efflux ratio [41]: 2
- half-life [42]: 210 min
- bioavailability [43]: 69%
- Vd [44]: 0.4 L/kg
- Activity (Rattus norvegicus [45]): Non-toxic
